# Structures can show the parent of a compound that is named as a salt.
# System: Zymosan Stimulated Macrophages (arachidonic acid release)
# Experiment: Test A: Inhibition of Arachidonic Acid Release from Zymosan Stimulated Macrophages
# Assay type: cell-based, mouse (female MF1 mice)
# Settings: Mus musculus, Macrophage, inhibition of arachidonic acid release, zymosan stimulated mouse peritoneal macrophages; tested at 100, 50, 20, 10, 5 and 1 μM; ≤100 μM considered active; read-out: Test A IC50
# Protocol: Test A was carried out in the following way:
# Inhibition of Arachidonic Acid Release from Zymosan Stimulated Macrophages
# Female MF1 mice (weighing 20 to 25 g) were killed using a rising concentration of CO2. The mice were laid on their backs and the abdomens wiped with 70% alcohol. The skin was pulled back, exposing the peritoneal wall. Medium A (5 ml) (see below) was injected into the peritoneal cavity of each mouse followed by approximately 1 ml of air using a 20 ml syringe and a 21G×40 mm needle in order to form a suspension of macrophage cells. The medium and cells were then removed using a 19G×40 mm needle. The resulting suspension was returned to a sterile beaker kept on ice. The extracts from all the mice were pooled and this pooled cell suspension was counted using a Coulter counter and adjusted to a final cell count of 1-1.3×10^6 cells/ml prior to labelling with [^3 H]-arachidonic acid. Typically five mice provided sufficient cells for each multiwell plate.
# Sufficient [^3 H]-arachidonic acid in ethanol to give a final concentration of 1.6 μCi/ml (equivalent to 40 μCi/plate) was blown to dryness under nitrogen. The arachidonic acid was then resuspended in 1 or 2 ml of the cell suspension which was then mixed with the remainder of the cell suspension in a centrifuge bottle. The labelled cell suspension was then plated out into sterile plastic 96 flat-bottomed well plates (250 μl per well) and incubated overnight at 37° C. in a moist atmosphere of 5% CO2, 95% air.
# The following day, non-adherent cells were removed by washing 3 times with sterile phosphate buffered saline (PBS). The adherent peritoneal macrophages were then cultured for a further 24 hours in the presence or absence of drugs, in medium B (see below) at 37° in a 5% CO2 atmosphere in order to measure the effects of drugs on the spontaneous release of arachidonic acid in the absence of stimulus. After this incubation, supernatants were removed to give media 1 and stored in sealed multi-well plates at 4° C. prior to scintillation counting. Drugs which potentiated spontaneous release of arachidonic acid (125% of controls) were deemed to be toxic at the concentration at which this phenomenon occurred. The supernatants were replaced by fresh medium C containing fresh drug and a stimulus. Three drugs were tested at six concentrations (100, 50, 20, 10, 5 and 1 μM) in replicates of four on each plate. The other wells contained controls consisting of a positive control (e.g. dexamethasone), medium (B) only and medium C only.
# Incubation was then continued for a further 5 hours, whereupon the supernatants were collected to give media 2 and the adherent cells washed with PBS. The cells were then lysed with 100 μl of 0.1% TRITON® X100 in a 0.1% solution of bovine serum albumin in 0.9% saline and mechanically disrupted to give cell lysates. These supernatants (media 2) and cell lysates (Cells) were also stored in sealed multi-well plates at 4° C. prior to scintillation counting. 200 μl aliquots of media, or 100 μl aliquots of cells were counted using 2 ml of OPTIPHASE "HIGH SAFE" (Trademark of LKB) as scintillant.
# The percentage of arachidonic acid released was calculated using the mean values for each group of 4 wells in the following equation. [formula]
# The value for the arachidonic acid release in the absence of stimulus (spontaneous, cpm of media 2) from cells which had been exposed to neither stimulus nor drug was subtracted from all equivalent values (cpm media 2, stimulated with or without drug) to give the net stimulated release. The percentage inhibition of arachidonic acid release caused by a drug may then be calculated using the following equation. [formula]
# Compounds of formula I were tested at six concentrations (100, 50, 20, 10, 5 and 1 μM) and IC50 values calculated. Compounds with IC50 values≤100 μM are considered to be active. Advantageous compounds have an IC50 value<50 μM.
# Medium A (for peritoneal lavage) […]
row,Compound,IC50 [µM]
1,"COc1ccc(OCC(C)(C)NCCCn2ccnc2)cc1 [Example 108, N-[2-(4-methoxyphenoxy)-1,1-dimethylethyl]-3-(imidazol-1-yl)propylamine dihydrochloride hydrate]",100
2,"CC(C)(COc1ccccc1)NCCCn1ccnc1 [Example 35, 3-(Imidazol-1-yl)-N-(1,1-dimethyl-2-phenoxyethyl) propylamine]",47
3,"CC(C)(NCC(O)Cn1cnc(CCNC(=O)c2ccccc2)c1)c1ccc(Cl)cc1 (stereo not shown) [Example 63, N-[2-(1-{3-[1-(4-chlorophenyl)-1-methylethylamino]-2-hydroxypropyl}imidazol-4-yl)ethyl]benzamide]",14
4,"CCCCCCNC(=O)Cc1ccc(C(C)(C)NCC(O)Cn2ccnc2)cc1 (stereo not shown) [Example 47, N-Hexyl-4-{1-[2-hydroxy-3-(imidazol-1-yl)propylamino]-1-methylethyl}phenylacetamide]",64
5,"CCC(CC)(NCCCn1cnc(CCNC(=O)c2ccc(C#N)cc2)c1)c1ccccc1 [Example 62, 4-cyano-N-(2-{1-[3-(1-ethyl-1-phenylpropylamino)propyl]imidazol-4-yl}ethyl)benzamide]",14
6,"CCCCS(=O)(=O)Oc1ccc(C(C)(C)NCCCn2ccnc2)cc1 [Example 72, 4-{1-[3-(imidazol-1-yl)propylamino]-1-methylethyl}phenyl 1-butanesulphonate]",24
7,"COc1ccc(S(=O)(=O)NCCc2ccc(C(C)(C)NCCCn3ccnc3)cc2)cc1 [Example 42, N-[2-(4-{1-[3-(Imidazol-1-yl)propylamino]-1-methylethyl}phenyl)ethyl]-4-methoxybenzenesulphonamide]",9
8,"CCC(CC)(NCC(O)Cn1ccnc1)c1ccccc1 (stereo not shown) [Example 44, 1-(1-Ethyl-1-phenylpropylamino)-3-(imidazol-1-yl)-propan-2-ol]",120
9,"CCC(CC)(CO)c1ccc(C(C)(C)NCCCn2ccnc2)cc1 [Example 41, 2-Ethyl-2(4-{1-[3-(imidazol-1-yl)propylamino]-1-methylethyl}phenyl)butan-1-ol]",10
10,"CC(C)(NCCCn1ccnc1)c1ccc(Cl)c(NC(=O)c2ccccc2)c1 [Example 73, 2'-chloro-5'-{1-[3-(imidazol-1-yl)propylamino]-1-methylethyl}benzanilide]",25
11,"COc1ccccc1CCC(C)(C)NCCCn1ccnc1 [Example 36, 3'-(Imidazol-1-yl)-3-(2-methoxyphenyl)-1,1-dimethyldipropylamine]",60
12,"CC(C)(COc1ccc(Cl)cc1)NCC(O)Cn1ccnc1 (stereo not shown) [Example 52, 1-[2-(4-Chlorophenoxy)-1,1-dimethylethylamino]-3-(imidazol-1-yl)propan-2-ol]",23
13,"CC(C)(COc1ccccc1)NCCCn1cnc(CCNC(=O)c2ccccc2)c1 [Example 76, N-(2-{1-[3-(1,1-dimethyl-2-phenoxyethylamino)-propyl]imidazol-4-yl}ethyl)benzamide]",16
14,"CC(C)(NCCCn1ccnc1)c1ccc(CC(=O)NC2CCCCCC2)cc1 [Example 37, N-Cycloheptyl-4-{1-[3-(imidazol-1-yl)propylamino]-1-methylethyl}phenylacetamide]",49
15,"Clc1ccc(CCCNCCCn2ccnc2)cc1 [Example 14, 3-(4-Chlorophenyl)-3'-(imidazol-1-yl)dipropylamine]",6
16,"Cc1cc(SCC(C)(C)NCCCn2ccnc2)c(C)cc1Cl [Example 20, N-[2-(4-Chloro-2,5-xylylthio)-1,1-dimethylethyl]-3-(imidazol-1-yl)propylamine dihydrochloride]",4
17,"Cc1cc(S(=O)(=O)CC(C)(C)NCCCn2ccnc2)c(C)cc1Cl [Example 69, N-[2-(4-chloro-2,5-xylylsulphonyl)-1,1-dimethylethyl]-3-(imidazol-1-yl)propylamine dihydrochloride hemihydrate]",50

row,Compound,IC50 [µM]
1,"CC(C)(COc1ccc(F)cc1)NCCCn1ccnc1 [Example 40, N-[2-(4-Fluorophenoxy)-1,1-dimethylethyl]-3-(imidazol-1-yl)propylamine dimaleate hemihydrate]",0.3
2,"CCCCNCc1cn(CCCNC(C)(C)c2ccc(Cl)cc2)cn1 [Example 82, 3-[4-(butylaminomethyl)imidazol-1-yl]-N-[1-(4-chlorophenyl)-1-methylethyl]propylamine]",17
3,"CCCCS(=O)(=O)Oc1ccc(OCCNCCCn2ccnc2)cc1 [Example 67, 4-{2-[3-(imidazol-1-yl)propylamino]ethoxy}phenyl 1-butane sulphonate]",20
4,"CC(C)(NCCCn1cnc(CCNC(=O)c2ccccc2)c1)c1ccc(Cl)cc1 [Example 55, N-[2-(1-(3-[1-(4-chlorophenyl)-1-methylethylamino]propyl}imidazol-4-yl)ethyl]benzamide]",7
5,"CCCC(CCC)(NCCCn1ccnc1)c1ccc(CC(=O)NC)cc1 [Example 34, 4-{1-[3-(Imidazol-1-yl)propylamino]-1-propylbutyl)phenyl-N-methylacetamide]",76
6,"c1ccc(CCCNCCCCCn2ccnc2)cc1 [Example 81, N-(3-phenylpropyl)-5-imidazol-1-ylpentylamine 0.75 hydrate]",65
7,"Clc1ccc(OCCCNCCCn2ccnc2)cc1 [Example 9, 3-(4-Chlorophenoxy)-3'-(imidazol-1-yl)dipropylamine]",50
8,"CC(C)(NCCCn1ccnc1)c1ccc(CCOCc2ccccc2)cc1 [Example 27, N-{1-[4-(2-Benzyloxyethyl)phenyl]-1-methylethyl}-3-(imidazol-1-yl)propylamine]",70
9,"Cc1ccc(OCCNCCCn2ccnc2)cc1C [Example 6, N-[2-(3,4-Dimethylphenoxy)ethyl]-3-(imidazol-1-yl)propylamine]",20
10,"CCCN(CCC)S(=O)(=O)c1ccc(C(C)(C)NCCCn2ccnc2)cc1 [Example 26, 4-{1-[3-(Imidazol-1-yl)propylamino]-1-methylethyl}-N,N-dipropylbenzenesulphonamide]",10
11,"CC(C)(CNCCCn1ccnc1)c1ccc(Cl)cc1 [Example 13, 2-(4-Chlorophenyl)-3'-(imidazol-1-yl)-2-methyldipropylamine dihydrochloride]",9
12,"CC(C)(COc1ccccc1)NCC(O)Cn1ccnc1 (stereo not shown) [Example 53, 3-(Imidazol-1-yl)-1-(2-phenoxy-1,1-dimethylethylamino) propan-2-ol]",99
13,"CC(C)(NCCCc1nccn1Cc1ccccc1)c1ccc(Cl)cc1 [Example 86, 3-(1-benzylimidazol-2-yl)-N-[1-(4-chlorophenyl)-1-methylethyl]propylamine]",3
14,"CC(C)(NCc1ncc[nH]1)c1ccc(Cl)cc1 [Example 83, 1-(4-chlorophenyl)-N-(imidazol-2-ylmethyl)-1-methylethylamine]",90
15,"CC(C)(NCCCn1ccnc1)c1ccc(CCNC(=O)c2ccccc2)cc1 [Example 57, N-[2-(4-{1-[3-(imidazol-1-yl)propylamino]-1-methylethyl}phenyl)-ethyl]benzamide]",21
16,"CC(C)(NCCCn1cnc(CCNS(=O)(=O)c2ccccc2)c1)c1ccc(Cl)cc1 [Example 54, N-[2-(1-{3-[1-(4-chlorophenyl)-1-methylethylamino]-propyl}imidazol-4-yl)ethyl]benzenesulphonamide]",7
17,"CC(C)(COc1ccc(C2=NCCS2)cc1)NCCCn1ccnc1 [Example 109, N-[1,1-dimethyl-2-[4-(4,5-dihydrothiazol-2-yl)phenoxy]ethyl}-3-(imidazol-1-yl)propylamine dimaleate]",33
